Results from publication PMC7734281, “Functionalized Oxoindolin Hydrazine Carbothioamide Derivatives as Highly Potent Inhibitors of Nucleoside Triphosphate Diphosphohydrolases” (Frontiers in Pharmacology, 2020).

How the values were obtained:
Format in all cases: biochemical
m-NTPDase8 = biological target: T1, m-NTPDase8 (Mus musculus, UniProt Q8K0L2); experiment: m-NTPDase8 inhibition, malachite green assay; conditions: for inhibition at 100 µM: compound 100 µM; for IC50: mean ± SEM of three independent experiments
T1 construct: made in house; host or cells: COS-7 cells, transient transfection; crude protein extract after sonication
T1 sequence (Q8K0L2 1-497): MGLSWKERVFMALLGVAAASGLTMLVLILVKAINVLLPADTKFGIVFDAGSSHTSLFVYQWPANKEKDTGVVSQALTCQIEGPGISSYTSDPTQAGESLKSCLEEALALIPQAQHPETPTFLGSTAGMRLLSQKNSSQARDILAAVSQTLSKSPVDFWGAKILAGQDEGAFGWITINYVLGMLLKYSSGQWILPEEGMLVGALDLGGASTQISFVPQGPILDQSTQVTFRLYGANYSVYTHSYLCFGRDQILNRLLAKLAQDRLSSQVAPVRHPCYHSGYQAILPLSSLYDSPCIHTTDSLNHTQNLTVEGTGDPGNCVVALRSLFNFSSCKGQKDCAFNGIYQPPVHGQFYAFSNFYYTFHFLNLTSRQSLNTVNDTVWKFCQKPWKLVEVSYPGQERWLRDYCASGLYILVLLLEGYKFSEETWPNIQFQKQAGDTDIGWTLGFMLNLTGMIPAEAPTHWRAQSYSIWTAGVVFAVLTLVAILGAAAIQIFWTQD
Protocol: (§1) COS-7 cells were transfected with plasmids expressing human or mouse NTPDases1, -2, -3, and -8 as previously described ([Levesque et al., 2007]; [Lecka et al., 2014]) Briefly, the confluent cells were transferred to Dulbecco’s Modified Eagle’s Medium containing no fetal bovine serum. Then, these cells were incubated with plasmid DNA (6 µg) and Lipofectamine reagent (24 µl) at 37°C. After 5 h, transfection was terminated with the addition of an equal volume of DMEM/F-12 (supplemented with 20% FBS) and cells were collected by harvesting after 40–72 h.
(§2) To prepare protein extracts, transfected COS-7 cells were washed three times with tris-saline buffer while temperature was maintained at 4°C. Then cells were scraped and resuspended in harvesting buffer containing 95 mM NaCl, 45 mM tris and 0.1 mM phenylmethylsulfonyl fluoride (pH 7.5). Cells were again washed twice by centrifugation for 5 min at 300 × g at 4°C and then resuspended in harvesting buffer (supplemented with 10 μg ml aprotinin). Following sonication, cellular debris was isolated by 10 min centrifugation at 300 g at 4°C. Subsequently, supernatant was removed very carefully and protein concentration was determined by using Bradford microplate assay while using the bovine serum albumin as a standard ([Bradford, 1976]).
(§3) The inhibitory effects of synthesized compounds on h-NTPDase1, -2, -3, and -8 were determined as described previously, although with slight modifications ([Martín-Satué et al., 2009]). Assay was conducted in a reaction medium containing 50 mM tris-HCl and 5 mM CaCl2 (pH 7.4). All the test compounds were dissolved in dimethyl sulfoxide (DMSO, 10%) and initially screened at a concentration of 100 µM. A reaction mixture containing 55 µl of assay buffer, 10 µl of test compound solution and 10 µl of h-NTPDase1 (58 ng/well) or h-NTPDase2 (79 ng/well) or h-NTPDase3 (163 ng/well) or h-NTPDase8 (66 ng/well) was incubated at 37°C for 10 min. Following the incubation, a 10 µl solution of adenosine triphosphate (ATP, 100 µm) was added as substrate and reaction mixture was again incubated for 15 min at 37°C. The reaction was stopped by adding malachite green reagent (15 µl) and placed at room temperature for 4 to 6 min. Finally, absorbance was measured at 630 nm by using Omega FLUOstar microplate reader (BMG Labtech, Ortenberg, Germany) and % inhibitions were calculated. For compounds showing more than 50% inhibition of any isozyme, dose response curves were generated and their IC50 values were determined. Three separate enzyme inhibition assays were carried out in triplicate and dose-response curve were generated by using PRISM 5.0 (GraphPad, San Diego, United States).
(§4) Same procedure was adopted to determine the inhibitory effects of compounds on mouse NTPDases (m-NTPDases). However, the amount of protein used was as follows: m-NTPDase1 (82 ng/well), m-NTPDase2 (57 ng/well), m-NTPDase3 (110 ng/well) and m-NTPDase8 (79 ng/well)

h-NTPDase1 = biological target: T2, h-NTPDase1 (Homo sapiens, UniProt P49961); experiment: h-NTPDase1 inhibition, malachite green assay; conditions: for inhibition at 100 µM / Ki / IC50: human NTPDase1; for inhibition at 100 µM: compound 100 µM; for IC50: ATP 100 µM substrate, mean ± SEM of three independent experiments
T2 construct: made in house; host or cells: COS-7 cells, transient transfection; crude protein extract after sonication
T2 sequence (P49961 1-510): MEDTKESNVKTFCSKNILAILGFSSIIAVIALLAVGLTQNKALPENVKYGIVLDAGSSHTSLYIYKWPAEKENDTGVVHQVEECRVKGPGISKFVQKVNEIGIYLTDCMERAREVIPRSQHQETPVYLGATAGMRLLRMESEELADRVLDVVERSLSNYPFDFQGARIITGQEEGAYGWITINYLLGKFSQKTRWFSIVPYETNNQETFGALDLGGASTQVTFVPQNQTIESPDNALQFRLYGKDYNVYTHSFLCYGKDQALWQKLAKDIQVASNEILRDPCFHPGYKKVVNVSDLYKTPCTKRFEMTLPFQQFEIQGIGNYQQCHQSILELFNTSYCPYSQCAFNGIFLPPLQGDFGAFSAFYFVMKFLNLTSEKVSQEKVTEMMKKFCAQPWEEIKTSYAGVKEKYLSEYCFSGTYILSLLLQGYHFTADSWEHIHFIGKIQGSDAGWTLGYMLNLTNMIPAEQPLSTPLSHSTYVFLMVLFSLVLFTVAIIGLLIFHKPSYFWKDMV
Protocol: as §1, §2, §3

m-NTPDase3 = biological target: T3, m-NTPDase3 (Mus musculus, UniProt Q8BFW6); experiment: m-NTPDase3 inhibition, malachite green assay; conditions: for inhibition at 100 µM: compound 100 µM; for IC50: mean ± SEM of three independent experiments
T3 construct: made in house; host or cells: COS-7 cells, transient transfection; crude protein extract after sonication
T3 sequence (Q8BFW6 1-529): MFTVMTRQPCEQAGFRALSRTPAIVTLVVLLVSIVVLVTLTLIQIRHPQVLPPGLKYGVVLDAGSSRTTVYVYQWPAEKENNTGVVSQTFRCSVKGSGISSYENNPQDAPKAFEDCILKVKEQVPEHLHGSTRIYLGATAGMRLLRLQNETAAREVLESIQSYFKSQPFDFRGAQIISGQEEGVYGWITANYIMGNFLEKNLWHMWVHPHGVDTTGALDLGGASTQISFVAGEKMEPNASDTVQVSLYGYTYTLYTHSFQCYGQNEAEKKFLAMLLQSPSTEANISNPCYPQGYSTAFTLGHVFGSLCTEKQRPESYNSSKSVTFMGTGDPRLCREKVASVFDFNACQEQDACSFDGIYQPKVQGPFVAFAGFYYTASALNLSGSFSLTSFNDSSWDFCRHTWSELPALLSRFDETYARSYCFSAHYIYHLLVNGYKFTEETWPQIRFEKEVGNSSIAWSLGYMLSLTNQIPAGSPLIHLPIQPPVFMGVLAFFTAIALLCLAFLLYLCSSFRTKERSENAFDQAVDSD
Protocol: as §1, §2, §3, §4

SMILES	inhibition at 100 µM (m-NTPDase8) [%]	inhibition at 100 µM (h-NTPDase1) [%]	inhibition at 100 µM (m-NTPDase3) [%]	Ki (h-NTPDase1) [µM]	IC50 (h-NTPDase1) [µM]	Ki (m-NTPDase8) [µM]	IC50 (m-NTPDase8) [µM]	Mode of inhibition of h-NTPDase1 (h-NTPDase1; Lineweaver-Burk plot)	Ki (m-NTPDase3) [µM]	IC50 (m-NTPDase3) [µM]
O=C1Nc2ccccc2/C1=N/NC(=S)Nc1ccccc1 [8a, (Z)-2-(2-oxoindolin-3-ylidene)-N-phenylhydrazine-1-carbothioamide]	28	45	31	–	–	–	–	–	–	–
O=C1Nc2ccccc2/C1=N/NC(=S)Nc1ccc([N+](=O)[O-])cc1 [8b, (Z)-N-(4-nitrophenyl)-2-(2-oxoindolin-3-ylidene)hydrazine-1-carbothioamide]	30	–	28	0.04	0.29 ± 0.02	–	–	–	–	–
O=C1Nc2ccccc2/C1=N/NC(=S)Nc1ccc(Cl)cc1 [8c, (Z)-N-(4-chlorophenyl)-2-(2-oxoindolin-3-ylidene)hydrazine-1-carbothioamide]	36	–	–	0.03	0.23 ± 0.01	–	–	–	–	–
O=C1Nc2ccccc2/C1=N/NC(=S)Nc1ccc(F)cc1 [8d, (Z)-N-(4-fluorophenyl)-2-(2-oxoindolin-3-ylidene)hydrazine-1-carbothioamide]	–	49.1	29	–	–	0.17	1.45 ± 0.12	–	–	–
COc1cccc(NC(=S)N/N=C2\C(=O)Nc3ccccc32)c1 [8e, (Z)-N-(3-methoxyphenyl)-2-(2-oxoindolin-3-ylidene)hydrazine-1-carbothioamide]	–	–	–	0.15	0.15 ± 0.009	0.44	3.8 ± 0.21	non-competitive	0.07	0.7 ± 0.05
O=C1Nc2ccccc2/C1=N/NC(=S)NCc1ccccc1 [8f, (Z)-N-benzyl-2-(2-oxoindolin-3-ylidene)hydrazine-1-carbothioamide]	38	–	32	0.03	0.24 ± 0.01	–	–	–	–	–
O=C1Nc2ccccc2/C1=N/NC(=S)Nc1cccc(Cl)c1 [8g, (Z)-N-(3-chlorophenyl)-2-(2-oxoindolin-3-ylidene)hydrazine-1-carbothioamide]	36	28	27	–	–	–	–	–	–	–
Cc1ccc(NC(=S)N/N=C2\C(=O)Nc3ccccc32)cc1 [8h, (Z)-2-(2-oxoindolin-3-ylidene)-N-(p-tolyl)hydrazine-1-carbothioamide]	28	49	31	–	–	–	–	–	–	–
Cc1cccc(C)c1NC(=S)N/N=C1\C(=O)Nc2ccccc21 [8i, (Z)-N-(2,6-dimethylphenyl)-2-(2-oxoindolin-3-ylidene)hydrazine-1-carbothioamide]	26	–	32	0.24	1.63 ± 0.15	–	–	–	–	–
COc1ccc(OC)c(NC(=S)N/N=C2\C(=O)Nc3ccccc32)c1 [8j, (Z)-N-(2,5-dimethoxyphenyl)-2-(2-oxoindolin-3-ylidene)hydrazine-1-carbothioamide]	32	–	30	0.02	0.15 ± 0.01	–	–	–	–	–
COc1ccc(NC(=S)NNC2=c3ccccc3=NC2=O)cc1 [8k, (Z)-N-(4-methoxyphenyl)-2-(2-oxoindolin-3-ylidene)hydrazine-1-carbothioamide]	24	44	36	–	–	–	–	–	–	–
O=C1Nc2ccccc2/C1=N/NC(=S)Nc1c(F)cccc1F [8l, (Z)-N-(2,6-difluorophenyl)-2-(2-oxoindolin-3-ylidene)hydrazine-1-carbothioamide]	13	–	–	0.04	0.3 ± 0.03	–	–	–	0.03	0.32 ± 0.04
CCNC(=S)N/N=C1\C(=O)Nc2ccccc21 [8m, (Z)-N-ethyl-2-(2-oxoindolin-3-ylidene)hydrazine-1-carbothioamide]	35	–	–	0.38	2.6 ± 0.02	–	–	–	0.24	2.41 ± 0.15
Cc1ccc(C(=O)Nc2ccc(S(=O)(=O)O)c3cc(S(=O)(=O)O)cc(S(=O)(=O)O)c23)cc1NC(=O)c1cccc(NC(=O)Nc2cccc(C(=O)Nc3cc(C(=O)Nc4ccc(S(=O)(=O)O)c5cc(S(=O)(=O)O)cc(S(=O)(=O)O)c45)ccc3C)c2)c1 [Suramin, reference compound]	–	–	–	2.33	16.1 ± 1.02	–	> 100	–	3.07	31 ± 2
